“Also recorded” adds a separate entry of the source.
Experiments:
peptide-pulsed C1R-A01 [1] = assay: IFN-gamma ELISA of CTL lines and CTL clone (HLA-A*0101); type: cell-based, human
Experimental: CTLs were propagated in culture using methods similar to those disclosed by Riddell et al. (Walter E A et al., N Engl J Med 1995, 333(16): 1038-44; Riddell S R et al., Nat Med 1996, 2(2): 216-23). The CTLs were co-cultured in a total of 25 ml AIM-V medium containing 5% AS and 40 ng/ml anti-CD3 antibody with two types of Mitomycin C-treated human B lymphoblastoid cell lines at 5×10^6 cells. One day after beginning of the culturing, 120 IU/ml IL-2 was added to the culture. On days 5, 8 and 11, a fresh AIM-V/5% AS medium containing 30 IU/ml IL-2 was added to the culture (Tanaka H et al., Br J Cancer 2001, 84(1): 94-9; Umano Y et al., Br J Cancer 2001, 84(8): 1052-7; Uchida N et al., Clin Cancer Res 2004, 10(24): 8577-86; Suda T et al., Cancer Sci 2006, 97(5): 411-9; Watanabe T et al., Cancer Sci 2005, 96(8): 498-506).
CTLs were seeded to make 1 or 10 cells/well in 96 round-bottomed microtiter plates (Nalge Nunc International). The CTLs were co-cultured with two types of Mitomycin C-treated human B lymphoblastoid cell lines at 1×10^4 cells in a total of 150 micro-1/well 5% AS-containing AIM-V medium with 30 ng/ml anti-CD3 antibody and 125 IU/ml IL-2. Ten days later, 50 micro-1 of IL-2 was added to the medium to reach a final IL-2 concentration of 125 IU/ml. On day 14, the CTL activity was tested, and the CTL clones were propagated using the same method as described above (Uchida N et al., Clin Cancer Res 2004, 10(24): 8577-86; Suda T et al., Cancer Sci 2006, 97(5): 411-9; Watanabe T et al., Cancer Sci 2005, 96(8): 498-506).
(§1) Specifically, peptide-pulsed C1R-A01 (1×10^4 cells/well) was prepared as the stimulator cell. The induced CTLs, i.e., CTL lines and CTL clones, were used as the responder cell. The IFN-gamma ELISPOT assay and IFN-gamma ELISA were performed according to the manufacturer's manual.

[2] = system: COS7 cells transfected with both KOC1 and HLA-A*0101; assay: Specific CTL activity against target cells expressing KOC1 and HLA-A*0101; type: cell-based, African green monkey; settings: listed as KOC1-A01-9-96
Experimental: as §1
A cDNA encoding the open-reading frame of a target gene or HLA-A*0101 was amplified by PCR. The PCR-amplified product was cloned into an expression vector. Expression vectors were transfected using Lipofectamine 2000 (Invitrogen) following the manufacturer's recommended protocol. Two days after transfection, the transfected cells were harvested using versene (Invitrogen), and used as the stimulator cell for CTL activity assay (5×10^4 cells/well).
The CTL clone established against KOC1-A01-9-96 (SEQ ID NO: 86) was investigated for its ability to recognize target cells expressing KOC1 and the HLA-A*0101 molecule. COS7 cells transfected with both full-length KOC1 and the HLA-A*0101 gene (a specific model of target cells expressing KOC1 and the HLA-A*0101 gene) were prepared as the target cell. COS7 cells transfected with either full-length KOC1 or HLA-A*0101 were prepared as the control.

peptide-pulsed C1R-A01 [3] = assay: In vitro CTL induction, IFN-gamma ELISPOT assay (HLA-A*0101); type: cell-based, human; settings: CTLs induced with peptide-pulsed DCs from HLA-A*0101-positive volunteers; day 21; vs peptide-pulsed C1R-A01, compared with unpulsed control
Experimental: C1R (C1R-A01) that stably expresses HLA-A*0101 was used as a stimulator cell. A cDNA encoding the open-reading frame of HLA-A*0101 was amplified by PCR and cloned into an expression vector. C1R cells were transfected with the expression vector, and then selected using G418 (Invitrogen) for two weeks. The G418-selected cells were seeded into wells containing G418-added culture medium in a 96-well plate, and further cultured for 30 days. The exogenous HLA-A*0101 expression in C1R cells was verified by flow cytometric analysis.
Monocyte-derived dendritic cells (DCs) were used as the antigen-presenting cell to induce a cytotoxic T lymphocyte (CTL) response against peptides presented on human leukocyte antigens (HLAs). As described in the other sections, DCs were generated in vitro (Nakahara S et al., Cancer Res 2003, 63(14): 4112-8). Specifically, peripheral-blood mononuclear cells isolated from healthy volunteers (HLA-A*0101-positive) with the Ficoll-Paque plus solution (Pharmacia) were separated by attaching to plastic tissue culture dishes (Becton Dickinson) and concentrated as a monocyte fraction. The monocyte-concentrated population was cultured in the presence of 1000 IU/ml granulocyte macrophage colony-stimulating factor (R&D System) and 1000 IU/ml interleukin(IL)-4 (R&D System) in an AIM-V medium (Invitrogen) containing 2% heat-inactivated autologous serum (AS). After seven days of culturing, the cytokine-induced DCs were pulsed with 20 micro-g/ml each of the synthesized peptides in an AIM-V medium at 37 degrees C. for three hours in the presence of 3 micro-g/ml beta 2-microglobulin. Next, these peptide-pulsed DCs were inactivated by X-ray irradiation (20 Gy), and mixed in a 1:20 ratio with autologous CD8^+ T cells obtained by positive selection using the CD8 Positive Isolation Kit (Dynal). These culture products were seeded in a 48-well plate (Corning). Each well was made to contain 1.5×10^4 peptide-pulsed DCs, 3×10^5 CD8^+ T cells and 10 ng/ml IL-7 (R&D System) in 0.5 ml of the AIM-V/2% AS medium. Three days later, these culture products were added with a final concentration of 20 IU/ml IL-2 (CHIRON). On day 7 and day 14, T cells were further stimulated with peptide-pulsed autologous DCs. The DCs were prepared every time by the same method as above. On day 21, after the third peptide stimulation, CTL activities were examined against the peptide-pulsed C1R-A01 cells (Tanaka H et al., Br J Cancer 2001, 84(1): 94-9; Umano Y et al., Br J Cancer 2001, 84(8): 1052-7; Uchida N et al., Clin Cancer Res 2004, 10(24): 8577-86; Suda T et al., Cancer Sci 2006, 97(5): 411-9; Watanabe T et al., Cancer Sci 2005, 96(8): 498-506).
as §1

Sequence: VLDSLLVQY (a peptide derived from KOC1) [SEQ ID NO: 86]
- IFN-gamma production of CTL clone, ELISA (peptide-pulsed C1R-A01 [1]; CTL clone by limiting dilution, peptide-pulsed C1R-A01, listed as KOC1-A01-9-96): Potent IFN-gamma production
- IFN-gamma production of CTL lines, ELISA (peptide-pulsed C1R-A01 [1]; CTL lines, target cells pulsed with the peptide vs not pulsed, C1R-A01): potent IFN-gamma production
- specific CTL activity of CTL clone against target cells expressing KOC1 and HLA-A*0101 ([2]; COS7 transfected with both full-length KOC1 and HLA-A*0101): specific CTL activity; also recorded: potent CTL activities
- specific CTL activity of CTL clone against control cells ([2]; COS7 transfected with either full-length KOC1 or HLA-A*0101): a significant specific CTL activity was not shown; also recorded: a significant specific CTL activity was not detected
- peptide-specific CTL activity (IFN-gamma production), ELISPOT (peptide-pulsed C1R-A01 [3]): potent IFN-gamma production

From patent US10576102B2, “KOC1-derived peptide and vaccine including same” (ONCOTHERAPY SCIENCE, INC., priority 2014, dated 2020)
